# Results published in ChEMBL document CHEMBL1201862, “PubChem BioAssay data set” (2004).
# The source made the active and inactive calls.
# How the values were obtained:
# HeLa = assay: viability loss in HeLa cells – cell-based, 24 h, cherry-picked samples, cytotoxicity control, dose response (AID 504726); assay type: functional; settings: Homo sapiens;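 note: potency for cytotoxicity as loss of luminescence signal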
# [1] = target: T1, Zinc finger protein mex-5 (Caenorhabditis elegans, UniProt Q9XUB2); assay: potency of MEX-5 RNA-binding blockers – biochemical, C. elegans, fluorescence polarization, dose response (AID 1960)
# T1 sequence (Q9XUB2 whole entry): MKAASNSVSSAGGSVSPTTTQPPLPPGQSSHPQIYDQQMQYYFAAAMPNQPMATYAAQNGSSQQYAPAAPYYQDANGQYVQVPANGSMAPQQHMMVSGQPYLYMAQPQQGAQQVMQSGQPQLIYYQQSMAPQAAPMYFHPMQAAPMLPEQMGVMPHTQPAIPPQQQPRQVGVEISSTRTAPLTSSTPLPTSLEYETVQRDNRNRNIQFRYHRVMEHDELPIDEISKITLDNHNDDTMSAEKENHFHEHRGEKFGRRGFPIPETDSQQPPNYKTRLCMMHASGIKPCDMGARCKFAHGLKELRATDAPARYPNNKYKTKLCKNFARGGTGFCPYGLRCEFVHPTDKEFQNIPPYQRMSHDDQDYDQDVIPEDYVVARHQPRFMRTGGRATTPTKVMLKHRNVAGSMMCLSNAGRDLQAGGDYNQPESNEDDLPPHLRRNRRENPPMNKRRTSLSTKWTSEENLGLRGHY
# [2] = target: T2, RNA-binding protein pos-1 (Caenorhabditis elegans, UniProt G5EF15); assay: disruptors of C. elegans POS-1 RNA interaction – biochemical, fluorescence polarization, dose response (AID 1964);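 note: purified POS-1 fused to maltose binding protein made in E. coli; potency of compounds blocking POS-1 binding to fluorescent RNA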
# T2 sequence (G5EF15 whole entry): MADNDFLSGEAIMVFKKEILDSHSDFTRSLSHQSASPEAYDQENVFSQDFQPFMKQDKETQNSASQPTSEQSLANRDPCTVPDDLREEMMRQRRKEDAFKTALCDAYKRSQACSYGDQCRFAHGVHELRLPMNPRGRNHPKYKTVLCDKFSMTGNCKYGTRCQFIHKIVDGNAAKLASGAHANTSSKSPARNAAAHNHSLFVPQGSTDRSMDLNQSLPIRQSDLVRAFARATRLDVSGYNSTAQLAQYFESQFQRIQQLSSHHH
# ORF 73 = target: T3, ORF 73 (Human herpesvirus 8, UniProt O40947); assay: KSHV LANA DNA-binding disruption – biochemical, fluorescence polarization, cherry-picked samples, dose response (AID 504725); set-up: species or system Human gammaherpesvirus 8;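 note: fluorescence polarization of a labeled DNA duplex reporting LANA DNA binding; potency is for inhibitors that block LANA binding to the DNA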
# T3 sequence (O40947 whole entry): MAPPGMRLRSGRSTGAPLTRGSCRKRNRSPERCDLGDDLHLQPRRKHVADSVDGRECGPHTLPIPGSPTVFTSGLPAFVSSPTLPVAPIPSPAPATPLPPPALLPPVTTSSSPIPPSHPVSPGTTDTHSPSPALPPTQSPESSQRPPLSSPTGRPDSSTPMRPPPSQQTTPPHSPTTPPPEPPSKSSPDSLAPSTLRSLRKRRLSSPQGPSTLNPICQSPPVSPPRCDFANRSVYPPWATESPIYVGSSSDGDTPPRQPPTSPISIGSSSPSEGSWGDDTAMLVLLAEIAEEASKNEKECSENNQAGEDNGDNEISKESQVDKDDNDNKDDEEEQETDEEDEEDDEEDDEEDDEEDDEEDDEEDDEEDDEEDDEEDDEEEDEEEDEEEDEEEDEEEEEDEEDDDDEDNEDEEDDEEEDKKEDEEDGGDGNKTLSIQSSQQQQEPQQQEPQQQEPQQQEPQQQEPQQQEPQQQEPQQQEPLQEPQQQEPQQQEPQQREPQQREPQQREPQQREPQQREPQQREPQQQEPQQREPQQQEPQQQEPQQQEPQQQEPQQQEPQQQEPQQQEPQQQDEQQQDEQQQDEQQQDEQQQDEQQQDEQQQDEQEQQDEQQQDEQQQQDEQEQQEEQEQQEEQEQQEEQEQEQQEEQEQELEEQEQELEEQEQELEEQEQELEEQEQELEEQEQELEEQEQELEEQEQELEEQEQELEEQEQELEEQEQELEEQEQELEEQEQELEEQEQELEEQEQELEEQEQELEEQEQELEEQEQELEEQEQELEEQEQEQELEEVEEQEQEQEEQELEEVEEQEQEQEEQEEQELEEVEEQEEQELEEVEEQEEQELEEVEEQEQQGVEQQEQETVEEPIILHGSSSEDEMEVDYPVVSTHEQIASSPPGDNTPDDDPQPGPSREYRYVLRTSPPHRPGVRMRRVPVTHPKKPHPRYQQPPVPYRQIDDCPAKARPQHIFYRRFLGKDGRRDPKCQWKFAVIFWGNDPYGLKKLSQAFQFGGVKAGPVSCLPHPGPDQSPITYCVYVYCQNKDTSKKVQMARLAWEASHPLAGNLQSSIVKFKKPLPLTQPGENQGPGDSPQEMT
# fMet-Leu-Phe receptor = target: T4, fMet-Leu-Phe receptor (Homo sapiens, UniProt P21462); assay: formyl peptide receptor binders – dose response (AID 519); assay type: functional
# T4 sequence (P21462 whole entry): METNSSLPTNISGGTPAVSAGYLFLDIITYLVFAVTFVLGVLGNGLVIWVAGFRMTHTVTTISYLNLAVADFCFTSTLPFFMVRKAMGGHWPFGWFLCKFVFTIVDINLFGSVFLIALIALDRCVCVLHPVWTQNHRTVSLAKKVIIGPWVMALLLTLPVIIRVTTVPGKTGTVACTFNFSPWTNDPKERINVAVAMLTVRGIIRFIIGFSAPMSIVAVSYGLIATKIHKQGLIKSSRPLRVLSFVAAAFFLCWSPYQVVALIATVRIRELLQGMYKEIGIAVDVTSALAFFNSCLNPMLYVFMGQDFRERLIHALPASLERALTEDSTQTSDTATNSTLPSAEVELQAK
# [3] = Luminescence Cell-Based Dose Response HTS to Identify Inhibitors of 5'UTR Stem-Loop Driven Prion Protein mRNA Translation in H4 Neuroglioblastoma Cells. [Related pubchem assays: 1827 (Project Summary), 1813 (Primary HTS)]; assay type: functional
# [4] = alpha-synuclein stem-loop translation blockers – luminescence, H4 neuroglioblastoma cells, dose confirmation, confirmation (AID 2454); assay type: functional, cell-based;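 note: H4 neuroglioblastoma cells carrying an alpha-synuclein 5'UTR luciferase reporter; potency for inhibition of the luciferase signal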
# [5] = target: T5, Microphthalmia-associated transcription factor (Homo sapiens, UniProt O75030); assay: reducers of TRPM1 reporter luminescence, concentration series – cell-based, SK-MEL-5, cherry-picked, set 3, MITF inhibitor project, dose response (AID 493073); assay type: functional;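 note: SK-MEL-5 melanoma cells with luciferase driven by the MITF target TRPM1 promoter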
# T5 sequence (O75030 whole entry): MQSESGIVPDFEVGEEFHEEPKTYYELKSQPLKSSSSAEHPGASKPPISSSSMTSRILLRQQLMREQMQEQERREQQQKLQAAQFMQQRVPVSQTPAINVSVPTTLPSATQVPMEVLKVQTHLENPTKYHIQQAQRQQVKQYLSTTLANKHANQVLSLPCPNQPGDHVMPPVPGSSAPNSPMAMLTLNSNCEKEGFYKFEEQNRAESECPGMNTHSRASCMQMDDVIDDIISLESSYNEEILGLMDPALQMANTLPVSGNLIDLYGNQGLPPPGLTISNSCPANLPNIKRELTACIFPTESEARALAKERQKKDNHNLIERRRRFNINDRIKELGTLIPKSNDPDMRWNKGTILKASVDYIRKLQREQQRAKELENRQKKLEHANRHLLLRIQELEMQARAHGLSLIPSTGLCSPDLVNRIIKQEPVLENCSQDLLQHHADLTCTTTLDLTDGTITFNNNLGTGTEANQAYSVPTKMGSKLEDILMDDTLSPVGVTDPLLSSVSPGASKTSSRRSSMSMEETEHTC
# cells = assay type: functional, cell-based
# [6] = luciferase reporter signal reduction – luminescence, H4-C neuroglioblastoma cells, dose response (AID 2458); assay type: functional, cell-based;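 note: H4 neuroglioblastoma cells stably carrying a luciferase reporter gene fusion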
# [7] = alpha-synuclein stem-loop luciferase translation blockers – H4 neuroglioma cells, luminescence, confirmation (AID 1988); assay type: functional, cell-based
# [8] = luciferase reporter signal suppression in cells – H4 neuroglioma cells, luminescence, dose response (AID 1990); assay type: functional, cell-based
# [9] = A Cell Based Secondary Assay To Explore Cytotoxicity of Compounds that Sensitize Mycobacterium Tuberculosis to Beta-Lactam Antibiotics.; assay type: functional
# [10] = HEK-293T cell viability reduction – luminescence, B-cell screen hits, cytotoxicity control for BCR NF-kB inhibitor project, dose response (AID 489021); assay type: functional, cell-based;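 note: HEK-293T cells carrying an NF-kB luciferase reporter; cells exposed to compound for about 14 hours before viability readout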
# [11] = HEK-293T viability loss after treatment – luminescence, T-cell screen hits, cytotoxicity control for TCR NF-kB inhibitor project, dose response (AID 489026); assay type: functional, cell-based;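 note: cells exposed to compound about 14 hours before the viability readout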
# [12] = target: 26S proteasome non-ATPase regulatory subunit 14 (Homo sapiens, UniProt O00487); assay: inhibition of proteasome subunit RPN11 – biochemical, fluorescence polarization, uHTS hits, confirmation (AID 602368); assay type: functional
# Cytochrome P450 2C19 = Cytochrome P450 2C19 (Homo sapiens, UniProt P33261); assay: Cytochrome panel assay with activity outcomes. Panel member name: p450-cyp2c19 Compounds with AC50 equal or less than 10 uM are considered active; assay type: functional; settings: read-out: AC50
# Prothrombin = Prothrombin (Bos taurus, UniProt P00735); assay: thrombin protease inhibitors – biochemical, fluorescence polarization, uHTS hits, dose response (AID 602369); assay type: functional
# Cytochrome P450 3A4 = Cytochrome P450 3A4 (Homo sapiens, UniProt P08684);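 note: CYP3A4 tested as one member of a cytochrome P450 panel screen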
# NS3 = NS3 (Hepatitis C virus, UniProt A3EZJ3); assay: PubChem AID 2173; set-up: species or system Hepacivirus hominis
# [13] = target: T6, Voltage-gated N-type calcium channel alpha-1B subunit/Amyloid beta A4 precursor protein-binding family A member 1 (Homo sapiens, UniProt Q00975+Q02410); assay type: protein assay
# [14] = target: T6, Voltage-gated N-type calcium channel alpha-1B subunit/Amyloid beta A4 precursor protein-binding family A member 1; assay type: protein assay; remark: listed apart in the source
# [15] = target: 72 kDa type IV collagenase (Homo sapiens, UniProt P08253); assay: Dose Response validation of uHTS RPN11 inhibitor hits using a MMP-2 Fluorescence assay.; assay type: functional
# [16] = target: Induced myeloid leukemia cell differentiation protein Mcl-1 (Homo sapiens, UniProt Q07820); assay type: functional
# Large T antigen = Large T antigen (Simian virus 40, UniProt P03070); assay type: functional, Betapolyomavirus macacae;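 note: Confirmatory-stage PubChem screen for compounds that inhibit SV40 T antigen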
# Large T antigen, sequence (P03070 whole entry): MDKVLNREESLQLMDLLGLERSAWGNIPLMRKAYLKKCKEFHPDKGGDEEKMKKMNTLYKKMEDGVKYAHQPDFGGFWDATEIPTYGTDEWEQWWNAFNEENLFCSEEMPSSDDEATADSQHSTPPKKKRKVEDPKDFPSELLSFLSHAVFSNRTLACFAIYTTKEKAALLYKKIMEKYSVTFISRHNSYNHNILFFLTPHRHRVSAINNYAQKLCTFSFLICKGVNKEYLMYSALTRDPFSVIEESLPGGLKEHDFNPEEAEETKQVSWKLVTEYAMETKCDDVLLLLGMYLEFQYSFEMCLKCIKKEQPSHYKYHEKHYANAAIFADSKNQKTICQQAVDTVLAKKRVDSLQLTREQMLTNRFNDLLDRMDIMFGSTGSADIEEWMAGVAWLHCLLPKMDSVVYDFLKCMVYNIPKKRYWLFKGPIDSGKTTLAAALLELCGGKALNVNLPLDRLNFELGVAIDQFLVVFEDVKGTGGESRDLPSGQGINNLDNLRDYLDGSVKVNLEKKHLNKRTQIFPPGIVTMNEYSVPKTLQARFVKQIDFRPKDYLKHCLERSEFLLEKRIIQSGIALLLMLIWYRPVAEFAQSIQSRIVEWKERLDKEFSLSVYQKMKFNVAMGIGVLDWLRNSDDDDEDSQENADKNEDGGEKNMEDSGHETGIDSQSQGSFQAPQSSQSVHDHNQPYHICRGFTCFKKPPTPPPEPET
# T6 sequence (Q00975 whole entry): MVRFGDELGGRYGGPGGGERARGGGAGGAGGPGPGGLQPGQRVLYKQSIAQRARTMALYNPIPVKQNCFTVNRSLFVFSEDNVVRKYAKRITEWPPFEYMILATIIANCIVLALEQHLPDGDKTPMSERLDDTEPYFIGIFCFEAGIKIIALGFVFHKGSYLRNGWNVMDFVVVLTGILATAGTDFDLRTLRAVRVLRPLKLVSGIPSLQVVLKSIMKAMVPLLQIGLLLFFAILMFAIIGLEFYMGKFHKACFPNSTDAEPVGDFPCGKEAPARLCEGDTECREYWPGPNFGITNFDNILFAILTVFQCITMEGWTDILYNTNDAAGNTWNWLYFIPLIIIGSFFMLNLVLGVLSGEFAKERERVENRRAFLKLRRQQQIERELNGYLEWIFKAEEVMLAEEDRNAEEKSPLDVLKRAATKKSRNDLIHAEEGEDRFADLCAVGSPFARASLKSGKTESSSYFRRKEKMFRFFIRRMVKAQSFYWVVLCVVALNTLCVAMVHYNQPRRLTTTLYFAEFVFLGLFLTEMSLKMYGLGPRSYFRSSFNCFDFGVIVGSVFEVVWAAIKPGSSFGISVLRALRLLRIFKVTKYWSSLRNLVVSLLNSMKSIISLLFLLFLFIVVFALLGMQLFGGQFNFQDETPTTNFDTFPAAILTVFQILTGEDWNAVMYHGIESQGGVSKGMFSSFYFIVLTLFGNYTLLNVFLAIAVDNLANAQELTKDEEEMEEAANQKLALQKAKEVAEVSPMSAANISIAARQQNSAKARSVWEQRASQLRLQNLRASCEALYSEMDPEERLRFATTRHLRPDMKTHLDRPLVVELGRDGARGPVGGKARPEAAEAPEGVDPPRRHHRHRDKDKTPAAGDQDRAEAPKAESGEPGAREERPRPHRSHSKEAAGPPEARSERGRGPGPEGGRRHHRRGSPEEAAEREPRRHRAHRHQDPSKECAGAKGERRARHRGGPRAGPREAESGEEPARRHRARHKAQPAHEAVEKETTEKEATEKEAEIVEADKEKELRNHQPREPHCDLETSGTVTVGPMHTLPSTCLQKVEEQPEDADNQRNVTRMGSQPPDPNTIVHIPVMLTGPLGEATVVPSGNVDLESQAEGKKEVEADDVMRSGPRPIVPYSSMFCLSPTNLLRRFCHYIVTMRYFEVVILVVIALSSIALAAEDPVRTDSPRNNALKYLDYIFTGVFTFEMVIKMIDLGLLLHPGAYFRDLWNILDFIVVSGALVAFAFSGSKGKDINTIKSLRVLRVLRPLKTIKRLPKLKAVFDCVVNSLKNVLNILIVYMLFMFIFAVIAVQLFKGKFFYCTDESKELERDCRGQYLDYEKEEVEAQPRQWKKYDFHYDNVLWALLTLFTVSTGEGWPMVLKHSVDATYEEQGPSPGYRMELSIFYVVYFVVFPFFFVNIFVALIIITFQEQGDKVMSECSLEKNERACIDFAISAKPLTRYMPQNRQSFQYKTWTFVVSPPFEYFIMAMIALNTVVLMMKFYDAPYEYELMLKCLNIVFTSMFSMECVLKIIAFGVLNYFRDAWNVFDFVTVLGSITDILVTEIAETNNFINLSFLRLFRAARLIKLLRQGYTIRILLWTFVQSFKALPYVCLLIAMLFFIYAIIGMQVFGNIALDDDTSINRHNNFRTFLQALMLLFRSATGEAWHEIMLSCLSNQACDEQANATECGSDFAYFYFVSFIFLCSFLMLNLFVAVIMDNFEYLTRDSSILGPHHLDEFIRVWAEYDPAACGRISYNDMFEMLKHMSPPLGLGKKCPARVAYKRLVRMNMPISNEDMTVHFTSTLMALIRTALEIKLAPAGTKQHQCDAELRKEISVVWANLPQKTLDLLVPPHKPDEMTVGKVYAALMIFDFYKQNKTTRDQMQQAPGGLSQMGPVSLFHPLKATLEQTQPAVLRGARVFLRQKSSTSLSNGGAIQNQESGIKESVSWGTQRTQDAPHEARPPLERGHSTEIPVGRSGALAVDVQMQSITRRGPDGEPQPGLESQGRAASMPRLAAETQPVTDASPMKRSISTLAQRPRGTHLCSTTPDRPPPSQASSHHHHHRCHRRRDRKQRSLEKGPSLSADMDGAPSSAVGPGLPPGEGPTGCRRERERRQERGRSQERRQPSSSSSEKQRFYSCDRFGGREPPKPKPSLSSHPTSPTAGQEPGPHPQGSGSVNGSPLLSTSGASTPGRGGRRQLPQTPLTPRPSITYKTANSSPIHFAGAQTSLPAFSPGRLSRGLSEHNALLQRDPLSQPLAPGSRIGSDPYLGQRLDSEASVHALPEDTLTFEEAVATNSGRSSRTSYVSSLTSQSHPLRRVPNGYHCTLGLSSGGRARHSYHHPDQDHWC
# T6 sequence (Q02410 whole entry): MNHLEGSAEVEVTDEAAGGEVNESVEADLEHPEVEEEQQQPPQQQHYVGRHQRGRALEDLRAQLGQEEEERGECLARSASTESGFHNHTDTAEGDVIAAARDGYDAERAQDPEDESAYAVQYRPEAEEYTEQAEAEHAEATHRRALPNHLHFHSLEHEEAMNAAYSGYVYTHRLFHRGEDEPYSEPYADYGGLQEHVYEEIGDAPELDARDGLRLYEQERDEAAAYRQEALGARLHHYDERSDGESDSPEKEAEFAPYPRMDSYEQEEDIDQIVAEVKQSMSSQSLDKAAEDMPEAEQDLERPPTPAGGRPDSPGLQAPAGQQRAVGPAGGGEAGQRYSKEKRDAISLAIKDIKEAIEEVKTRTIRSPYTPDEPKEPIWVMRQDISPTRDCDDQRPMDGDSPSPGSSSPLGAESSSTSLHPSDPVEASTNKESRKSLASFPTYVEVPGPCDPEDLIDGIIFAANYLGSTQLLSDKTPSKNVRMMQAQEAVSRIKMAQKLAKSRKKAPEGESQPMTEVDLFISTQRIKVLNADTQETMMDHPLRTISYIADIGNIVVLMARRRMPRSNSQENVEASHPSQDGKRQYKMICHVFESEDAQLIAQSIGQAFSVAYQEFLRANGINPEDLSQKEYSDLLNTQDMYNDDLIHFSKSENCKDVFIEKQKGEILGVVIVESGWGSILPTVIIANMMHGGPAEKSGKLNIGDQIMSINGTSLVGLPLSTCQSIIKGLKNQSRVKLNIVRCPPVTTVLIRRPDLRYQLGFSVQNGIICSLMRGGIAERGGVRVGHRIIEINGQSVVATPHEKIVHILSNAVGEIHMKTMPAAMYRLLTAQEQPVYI
# 26S proteasome non-ATPase regulatory subunit 14, sequence (O00487 whole entry): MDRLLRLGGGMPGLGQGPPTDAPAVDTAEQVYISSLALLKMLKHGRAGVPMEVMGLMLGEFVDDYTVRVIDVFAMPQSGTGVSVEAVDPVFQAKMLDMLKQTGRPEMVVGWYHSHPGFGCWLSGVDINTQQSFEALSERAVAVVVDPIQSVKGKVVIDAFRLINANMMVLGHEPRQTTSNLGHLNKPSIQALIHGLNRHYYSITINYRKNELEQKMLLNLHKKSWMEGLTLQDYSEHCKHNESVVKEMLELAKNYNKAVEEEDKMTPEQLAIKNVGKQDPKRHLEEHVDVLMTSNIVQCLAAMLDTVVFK
# 72 kDa type IV collagenase, sequence (P08253 whole entry): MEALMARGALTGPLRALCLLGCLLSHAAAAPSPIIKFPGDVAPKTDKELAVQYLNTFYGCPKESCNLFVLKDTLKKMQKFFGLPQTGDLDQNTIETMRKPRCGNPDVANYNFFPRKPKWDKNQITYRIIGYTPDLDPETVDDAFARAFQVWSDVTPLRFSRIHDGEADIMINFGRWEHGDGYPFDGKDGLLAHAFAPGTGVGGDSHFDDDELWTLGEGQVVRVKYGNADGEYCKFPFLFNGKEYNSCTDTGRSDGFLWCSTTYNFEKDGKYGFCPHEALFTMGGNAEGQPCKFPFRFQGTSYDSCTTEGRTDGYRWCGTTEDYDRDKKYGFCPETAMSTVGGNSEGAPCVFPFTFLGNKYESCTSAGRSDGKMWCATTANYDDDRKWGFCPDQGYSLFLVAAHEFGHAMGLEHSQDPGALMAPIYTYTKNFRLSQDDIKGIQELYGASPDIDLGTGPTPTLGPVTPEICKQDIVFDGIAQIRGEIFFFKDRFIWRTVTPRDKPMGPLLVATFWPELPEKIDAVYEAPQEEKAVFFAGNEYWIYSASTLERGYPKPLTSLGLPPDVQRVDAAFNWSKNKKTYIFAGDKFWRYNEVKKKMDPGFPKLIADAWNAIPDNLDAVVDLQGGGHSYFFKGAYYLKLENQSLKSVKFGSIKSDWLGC
smiles,measurement,setting,value
CCCc1nc(SC)nc(O)c1C,AC50,HeLa,81.7 µM (active)
COc1ccc(C2C(C(=O)c3cccs3)=C(O)C(=O)N2c2nnc(C)s2)cc1OC (stereo not drawn),EC50,[1],5.19 µM (active)
same,EC50,[2],7.2 µM (active)
same,AC50,ORF 73,17.5 µM (active)
same,AC50,HeLa,> 350 µM (inactive)
same,Ki,fMet-Leu-Phe receptor,> 66.7 µM (inactive)
Nc1ccc(-c2ncc(-c3ccccc3)o2)cc1,EC50,[3],< 0.1 µM (active)
same,EC50,[4],0.07 µM (active)
same,AC50,[5],0.171 µM (active)
same,EC50,cells,0.178 µM (active)
same,EC50,[6],0.044 µM (active)
same,EC50,[7],< 0.1 µM (active)
same,EC50,[8],< 0.1 µM (active)
Cc1cc(C(=O)CN2C(=O)NC(c3ccccc3)(c3ccccc3)C2=O)c(C)n1Cc1ccccc1,CC50,[9],> 40 µM (active)
COc1ccc(-c2noc(N3CCC(C(=O)Nc4cccc(OC)c4)CC3)n2)cc1,IC50,[10],> 80 µM (inactive)
COc1cc(C(=O)N2CCN(c3cc(Cl)ccc3Cl)CC2)cc(OC)c1OC,EC50,[3],0.164 µM (active)
same,EC50,[4],0.575 µM (active)
same,EC50,cells,0.457 µM (active)
same,EC50,[6],0.352 µM (active)
same,EC50,[7],< 0.1 µM (active)
same,IC50,[11],> 80 µM (inactive)
same,EC50,[8],0.148 µM (active)
COc1cc2nc(N3CCN(C(=O)OCc4ccccc4)[C@H](C(=O)NC(C)(C)C)C3)nc(N)c2cc1OC,CC50,[9],29.3 µM (active)
COc1cc(C(=O)Nc2cccc(-c3cn4cccnc4n3)c2)cc(OC)c1OC,CC50,[9],> 40 µM (active)
COc1cc2cc3c(N)c(C(=O)Nc4sc(C)c(C)c4C#N)sc3nc2cc1OC,IC50,[12],48.3 µM (active)
same,AC50,Cytochrome P450 2C19,15.8 µM (inconclusive)
same,IC50,Prothrombin,25.8 µM (active)
same,AC50,Cytochrome P450 3A4,8.91 µM (inconclusive)
same,IC50,NS3,> 36.3 µM (not active)
same,IC50,[13],11.8 µM (active)
same,IC50,[14],> 50 µM (inactive)
same,IC50,[15],8.14 µM (active)
same,IC50,[16],1.26 µM (active)
COc1ccc(-c2ccc(N(C)C)cc2)cc1[C@H]1[C@H]2C=CC[C@@H](C)[C@@H]2C(=O)N1Cc1ccccc1,IC50,[10],> 80 µM (inactive)
CCOC(=O)N1CCN(CC(=O)Nc2ccc([N+](=O)[O-])cc2C(=O)Nc2ccccc2F)CC1,IC50,[10],51.6 µM (inactive)
CC(C)(C)c1ccc(OCc2ccc(C(=O)N/N=C3\CC4CC=CC34)cc2)cc1 (stereo not drawn),CC50,[9],> 40 µM (active)
Cc1cc(N)ccc1N=Nc1c(C)n(C)n(-c2ccccc2)c1=O,IC50,Large T antigen,33.9 µM (active)
same,AC50,HeLa,285 µM (active)
